Data reported in PubChem BioAssay AID256 (DTP/NCI, 2004).
Several values for one entry are separate records, joined by “and”; a condition that tells them apart may be missing. Identical values can stand only once. Inconclusive results and toxic doses are left out. Rule for the calls: active = survival T/C of 150% or more; inactive = T/C below 125% in these data.

Test system: CD2F1 mice, L1210 leukemia ip, survival T/C
Experiment: NCI In Vivo Anticancer Drug Screen. Data for tumor model L1210 Leukemia (intraperitoneal) in CD2F1 (CDF1) mice
Details: higher = longer survival
In short: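 Antitumor effect is scored in animals hosting a serially transplanted tumor. Values compare compound-dosed animals against vehicle-only controls as a simple quotient.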

[1] = endpoint: mean survival time, dose: 50.0 mg/kg/injection, schedule: Q01DX009 (ip), vehicle: saline with Tween-80
[2] = endpoint: mean survival time, dose: 100.0 mg/kg/injection, schedule: Q01DX009 (ip), vehicle: saline with Tween-80
[3] = endpoint: mean survival time, dose: 200.0 mg/kg/injection, schedule: Q01DX009 (ip), vehicle: saline with Tween-80
[4] = endpoint: mean survival time, dose: 100.0 mg/kg/injection, schedule: Q04DX003 (ip), vehicle: saline with Tween-80
[5] = endpoint: mean survival time, dose: 200.0 mg/kg/injection, schedule: Q04DX003 (ip), vehicle: saline with Tween-80
[6] = endpoint: mean survival time, dose: 25.0 mg/kg/injection, schedule: Q01DX009 (ip), vehicle: water
[7] = endpoint: mean survival time, dose: 50.0 mg/kg/injection, schedule: Q01DX009 (ip), vehicle: water
[8] = endpoint: mean survival time, dose: 100.0 mg/kg/injection, schedule: Q01DX009 (ip), vehicle: water
[9] = endpoint: mean survival time, dose: 200.0 mg/kg/injection, schedule: Q01DX009 (ip), vehicle: water
[10] = endpoint: mean survival time, dose: 400.0 mg/kg/injection, schedule: Q04DX003 (ip), vehicle: saline with Tween-80
[11] = endpoint: mean survival time, dose: 100.0 mg/kg/injection, schedule: Q01DX001 (ip), vehicle: saline with Tween-80
[12] = endpoint: mean survival time, dose: 200.0 mg/kg/injection, schedule: Q01DX001 (ip), vehicle: saline with Tween-80
[13] = endpoint: mean survival time, dose: 400.0 mg/kg/injection, schedule: Q01DX001 (ip), vehicle: saline with Tween-80
[14] = endpoint: mean survival time, dose: 25.0 mg/kg/injection, schedule: Q04DX002 (ip), vehicle: saline with Tween-80
[15] = endpoint: mean survival time, dose: 50.0 mg/kg/injection, schedule: Q04DX002 (ip), vehicle: saline with Tween-80
[16] = endpoint: mean survival time, dose: 100.0 mg/kg/injection, schedule: Q04DX002 (ip), vehicle: saline with Tween-80
[17] = endpoint: mean survival time, dose: 200.0 mg/kg/injection, schedule: Q04DX002 (ip), vehicle: saline with Tween-80

Measured: T/C

C1=CC2C3C=CC(C3)C2C1 (stereo not given)
inactive: [1] 94 % of control | [2] 93 % of control | [3] 98 % of control

O=[N+]([O-])c1ccc(SSc2ccc([N+](=O)[O-])cn2)nc1
inactive: [1] 93 % of control | [2] 89 % of control | [4] 100 % of control | [5] 100 % of control

COc1cccc(/C=C/C(=O)O)c1OC
inactive: [6] 88 % of control | [7] 88 % of control | [8] 101 % of control | [9] 95 % of control | endpoint: mean survival time, dose: 400.0 mg/kg/injection, schedule: Q01DX009 (ip), vehicle: water 95 % of control

O=[N+]([O-])c1cc(Cl)c(Cl)cc1Cl
inactive: [2] 92 % of control | [4] 106 % of control | [3] 104 % of control | [5] 101 % of control | [10] 118 % of control

N#CCCC(C#N)(CCC#N)C(N)=O
inactive: [4] 98 % of control | [5] 98 % of control | [10] 107 % of control

O=C(NCCO)c1cc2ccccc2o1
inactive: [11] 93 % of control | [12] 98 % of control | [13] 90 % of control

O=C1NC(=O)C(Cc2ccccc2)C(=O)N1
inactive: [1] 92 % of control | [2] 96 % of control | [3] 96 % of control

CC(=O)Oc1cc(Cl)c(Cl)cc1Cl
inactive: [11] 108 % of control | [12] 97 % of control | [13] 94 % of control

Cc1ccc(N=Cc2cc(Cl)ccc2O)cc1.Cc1ccc(N=Cc2cc(Cl)ccc2O)cc1.[Co]
inactive: endpoint: mean survival time, dose: 25.0 mg/kg/injection, schedule: Q04DX003 (ip), vehicle: saline 95 % of control and 104 % of control | endpoint: mean survival time, dose: 50.0 mg/kg/injection, schedule: Q04DX003 (ip), vehicle: saline 98 % of control and 108 % of control | endpoint: mean survival time, dose: 100.0 mg/kg/injection, schedule: Q04DX003 (ip), vehicle: saline 124 % of control and 89 % of control

CCNc1nnc(N=Nc2ccccc2)s1
inactive: [14] 91 % of control | [15] 95 % of control | [16] 95 % of control | [17] 88 % of control

CCCSC(=O)Nc1cccc(OC(=O)NC)c1
inactive: [4] 99 % of control | [5] 94 % of control | [10] 99 % of control

CCNC(=O)[B-][N+](C)(C)C
inactive: endpoint: median survival time, dose: 12.5 mg/kg/injection, schedule: Q01DX009 (ip), vehicle: Klucel (hydroxypropylcellulose) (HPC) 108 % of control | endpoint: median survival time, dose: 25.0 mg/kg/injection, schedule: Q01DX009 (ip), vehicle: Klucel (hydroxypropylcellulose) (HPC) 106 % of control | endpoint: median survival time, dose: 50.0 mg/kg/injection, schedule: Q01DX009 (ip), vehicle: Klucel (hydroxypropylcellulose) (HPC) 106 % of control | endpoint: median survival time, dose: 100.0 mg/kg/injection, schedule: Q01DX009 (ip), vehicle: Klucel (hydroxypropylcellulose) (HPC) 107 % of control | endpoint: median survival time, dose: 200.0 mg/kg/injection, schedule: Q01DX009 (ip), vehicle: Klucel (hydroxypropylcellulose) (HPC) 106 % of control

COC(=O)c1ccc(-n2cc(C(=O)OC)c([N+]#N)c2[O-])cc1
inactive: [16] 107 % of control | [17] 88 % of control | [5] 93 % of control | endpoint: mean survival time, dose: 400.0 mg/kg/injection, schedule: Q04DX002 (ip), vehicle: saline with Tween-80 107 % of control | [10] 93 % of control

COc1ccc2ccccc2c1NC(C)=O
inactive: endpoint: mean survival time, dose: 100.0 mg/kg/injection, schedule: Q01DX001 (ip), vehicle: saline 102 % of control | endpoint: mean survival time, dose: 200.0 mg/kg/injection, schedule: Q01DX001 (ip), vehicle: saline 101 % of control | endpoint: mean survival time, dose: 400.0 mg/kg/injection, schedule: Q01DX001 (ip), vehicle: saline 101 % of control

Cc1cn(C2CC(O)C(COC(N)=O)O2)c(=O)[nH]c1=O (stereo not given)
inactive: endpoint: mean survival time, dose: 100.0 mg/kg/injection, schedule: Q01DX001 (ip), vehicle: Klucel (hydroxypropylcellulose) (HPC) 116 % of control | endpoint: mean survival time, dose: 200.0 mg/kg/injection, schedule: Q01DX001 (ip), vehicle: Klucel (hydroxypropylcellulose) (HPC) 92 % of control | endpoint: mean survival time, dose: 400.0 mg/kg/injection, schedule: Q01DX001 (ip), vehicle: Klucel (hydroxypropylcellulose) (HPC) 104 % of control

O=C1C=Cc2ccccc2C1=O
inactive: endpoint: mean survival time, dose: 0.63 mg/kg/injection, schedule: Q01DX009 (ip), vehicle: saline 98 % of control | endpoint: mean survival time, dose: 1.0 mg/kg/injection, schedule: Q01DX009 (ip), vehicle: saline 105 % of control | endpoint: mean survival time, dose: 1.25 mg/kg/injection, schedule: Q01DX009 (ip), vehicle: saline 104 % of control | endpoint: mean survival time, dose: 2.0 mg/kg/injection, schedule: Q01DX009 (ip), vehicle: saline 98 % of control | endpoint: mean survival time, dose: 2.5 mg/kg/injection, schedule: Q01DX009 (ip), vehicle: saline with Tween-80 110 % of control | endpoint: mean survival time, dose: 2.5 mg/kg/injection, schedule: Q01DX009 (ip), vehicle: saline 98 % of control | endpoint: mean survival time, dose: 4.0 mg/kg/injection, schedule: Q01DX009 (ip), vehicle: saline 88 % of control

O=C(Oc1ccc(OC(=O)c2ccccc2)c2c1C(=O)C(CBr)=C(CBr)C2=O)c1ccccc1
inactive: endpoint: mean survival time, dose: 0.75 mg/kg/injection, schedule: Q01DX009 (ip), vehicle: water 93 % of control | endpoint: mean survival time, dose: 1.5 mg/kg/injection, schedule: Q01DX009 (ip), vehicle: water 101 % of control | endpoint: mean survival time, dose: 3.0 mg/kg/injection, schedule: Q01DX009 (ip), vehicle: water 93 % of control and 97 % of control | endpoint: mean survival time, dose: 6.0 mg/kg/injection, schedule: Q01DX009 (ip), vehicle: water 93 % of control and 95 % of control | endpoint: mean survival time, dose: 12.0 mg/kg/injection, schedule: Q01DX009 (ip), vehicle: water 93 % of control | endpoint: mean survival time, dose: 12.5 mg/kg/injection, schedule: Q01DX009 (ip), vehicle: water 86 % of control | endpoint: mean survival time, dose: 24.0 mg/kg/injection, schedule: Q01DX009 (ip), vehicle: water 90 % of control | [6] 91 % of control | [7] 87 % of control | [8] 100 % of control | [9] 86 % of control

C=C[CH2][Sn]([c]1ccccc1)([c]1ccccc1)[c]1ccccc1
inactive: endpoint: mean survival time, dose: 50.0 mg/kg/injection, schedule: Q04DX003 (ip), vehicle: saline with Tween-80 87 % of control | [4] 91 % of control

[Cl][Gd]([Cl])[Cl]
inactive: [2] 92 % of control | [3] 94 % of control

CCCCCNC(=O)Nc1cccc(Cl)c1C
inactive: [2] 94 % of control | [4] 88 % of control | [3] 92 % of control | [5] 92 % of control | [10] 92 % of control

O=P(O)(O)OP(=O)(O)O.[NH-]CC[NH-].[NH-]CC[NH-].[Pd+2].[Pd+2]
inactive: endpoint: mean survival time, dose: 3.13 mg/kg/injection, schedule: Q04DX003 (ip), vehicle: distilled water + Tween-80 98 % of control | endpoint: mean survival time, dose: 6.25 mg/kg/injection, schedule: Q04DX003 (ip), vehicle: distilled water + Tween-80 93 % of control | endpoint: mean survival time, dose: 12.5 mg/kg/injection, schedule: Q04DX003 (ip), vehicle: distilled water + Tween-80 87 % of control | endpoint: mean survival time, dose: 25.0 mg/kg/injection, schedule: Q04DX003 (ip), vehicle: distilled water + Tween-80 96 % of control | endpoint: mean survival time, dose: 50.0 mg/kg/injection, schedule: Q04DX003 (ip), vehicle: distilled water + Tween-80 100 % of control | endpoint: mean survival time, dose: 100.0 mg/kg/injection, schedule: Q04DX003 (ip), vehicle: distilled water + Tween-80 105 % of control

COC1=C(OCc2ccccc2)C(=O)OC1C(O)CO (stereo not given)
inactive: [11] 98 % of control | [12] 97 % of control | [13] 93 % of control

CS(=O)(=O)N1C(=O)c2ccccc2C1=O
inactive: [14] 101 % of control | [15] 98 % of control | [16] 93 % of control

COc1ccccc1NC(=O)Oc1ccc(C2CCCCC2)cc1
inactive: endpoint: mean survival time, dose: 25.0 mg/kg/injection, schedule: Q01DX009 (ip), vehicle: saline with Tween-80 108 % of control | [14] 100 % of control | [1] 97 % of control | [15] 100 % of control | [2] 104 % of control | [16] 92 % of control and 98 % of control

CC(C)OC(=O)CC#N
inactive: [4] 96 % of control | [5] 105 % of control | [10] 96 % of control

CC(O)(c1ccc(Cl)cc1)c1ccc(Cl)cc1
inactive: [4] 106 % of control | [5] 101 % of control | [10] 90 % of control

C1CO[P+]2(O1)OCCO2
inactive: endpoint: mean survival time, dose: 100.0 mg/kg/injection, schedule: Q04DX002 (ip), vehicle: saline 95 % of control | endpoint: mean survival time, dose: 200.0 mg/kg/injection, schedule: Q04DX002 (ip), vehicle: saline 107 % of control | endpoint: mean survival time, dose: 400.0 mg/kg/injection, schedule: Q04DX002 (ip), vehicle: saline 95 % of control

O=C(/C=C\c1ccccc1)C(=O)/C=C/c1ccccc1
inactive: [4] 94 % of control | [5] 93 % of control | [10] 95 % of control

CCOC1=C([N+](=O)[O-])C(c2ccccc2)NC1=O (stereo not given)
inactive: [4] 95 % of control | [5] 95 % of control | [10] 89 % of control
